For one series, the target named is T1, Cytochrome P450 2A6 (Homo sapiens, UniProt P11509).
T1 sequence (P11509 whole entry): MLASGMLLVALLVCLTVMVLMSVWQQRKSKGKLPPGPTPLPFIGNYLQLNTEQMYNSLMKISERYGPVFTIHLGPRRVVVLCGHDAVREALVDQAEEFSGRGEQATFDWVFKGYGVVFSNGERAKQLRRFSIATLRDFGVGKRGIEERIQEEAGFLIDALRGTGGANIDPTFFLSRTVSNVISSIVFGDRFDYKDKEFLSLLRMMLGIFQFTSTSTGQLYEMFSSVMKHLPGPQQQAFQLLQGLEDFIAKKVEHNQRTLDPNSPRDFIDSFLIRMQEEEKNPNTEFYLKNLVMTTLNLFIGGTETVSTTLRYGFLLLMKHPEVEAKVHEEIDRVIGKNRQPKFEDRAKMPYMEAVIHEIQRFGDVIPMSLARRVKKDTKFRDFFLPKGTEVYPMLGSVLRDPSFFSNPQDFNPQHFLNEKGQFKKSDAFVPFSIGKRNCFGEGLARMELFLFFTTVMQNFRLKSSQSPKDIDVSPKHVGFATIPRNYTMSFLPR
Kind of series: Binding affinity to full length recombinant truncated non-catalytic N-terminal transmembrane helix containing C-terminal 4xHis tagged human CYP2A6dH expressed in Escherichia coli by HTS assay. It is filed as ADME.

The species entered for another series is Homo sapiens. Put plainly: Selectivity ratio of Kd for full length recombinant truncated non-catalytic N-terminal transmembrane helix containing C-terminal 4xHis tagged human CYP2A13dH expressed in Escherichia coli to Kd for full length recombinant truncated non-catalytic N-terminal transmembrane helix containing C-terminal 4xHis tagged human CYP2A6dH expressed in Escherichia coli.

`Brc1ccccc1CN1CCOCC1`: the Kd result on Cytochrome P450 2A6 is “Not Active”. Take `Fc1cccc(Cl)c1CN1CCOCC1`: at Cytochrome P450 2A6, the Kd result is “Not Active”. Take `Fc1ccccc1CN1CCOCC1`: the Kd entry on Cytochrome P450 2A6 is “Not Active”.

For `CC1CN(Cc2cccc(Cl)c2Cl)CC(C)O1` (stereo unspecified), the Selectivity ratio in the series filed under Homo sapiens was determined as 12.9.

For the compound `Clc1ccccc1CN1CCOCC1`, the Kd entry at Cytochrome P450 2A6 is on record as “Not Active”. On to `Cc1ccccc1CN1CCOCC1`, for which, at Cytochrome P450 2A6, the Kd result is “Not Active”.

Source of the values: ChEMBL document CHEMBL4418294, “Morpholines as selective inhibitors of cytochrome P450 2A13” (2013).
